Data from US10844077B2, “Thiazolyl-containing compounds for treating proliferative diseases” (Dana-Farber Cancer Institute, Inc., priority 2014, dated 2020).
Where two headings read alike, the source gives them in different places.

How the values were obtained:
Format in all cases: binding
broad panel of kinases [1] = molecular target: broad panel of kinases (Homo sapiens, UniProt Q04759); settings: PRKCQ; 1 μM
broad panel of kinases [2] = molecular target: broad panel of kinases (Homo sapiens, UniProt P42338); settings: PIK3CB; 1 μM
broad panel of kinases [3] = molecular target: broad panel of kinases (Homo sapiens, UniProt P07948); settings: LYN; 1 μM
broad panel of kinases [4] = molecular target: broad panel of kinases (Homo sapiens, UniProt Q9BZL6); settings: PRKD2; 1 μM
broad panel of kinases [5] = molecular target: broad panel of kinases (Homo sapiens, UniProt P12931); settings: SRC; 1 μM
broad panel of kinases [6] = molecular target: broad panel of kinases (Homo sapiens, UniProt Q00535); settings: CDK5; 1 μM
broad panel of kinases [7] = molecular target: broad panel of kinases (Homo sapiens, UniProt P21127); settings: CDC2L1; 1 μM
broad panel of kinases [8] = molecular target: broad panel of kinases (Homo sapiens, UniProt P06241); settings: FYN; 1 μM
broad panel of kinases [9] = molecular target: broad panel of kinases (Homo sapiens, UniProt P00533, L861Q); settings: EGFR(L861Q); 1 μM
broad panel of kinases [10] = molecular target: broad panel of kinases (Homo sapiens, UniProt Q9Y6M4); settings: CSNK1G3; 1 μM
broad panel of kinases [11] = molecular target: broad panel of kinases (Homo sapiens, UniProt Q8IVW4); settings: CDKL3; 1 μM
broad panel of kinases [12] = molecular target: broad panel of kinases (Homo sapiens, UniProt P46734); settings: MEK3; 1 μM
broad panel of kinases [13] = molecular target: broad panel of kinases (Homo sapiens, UniProt Q00537); settings: PCTK2; 1 μM
broad panel of kinases [14] = molecular target: broad panel of kinases (Homo sapiens, UniProt P29322); settings: EPHA8; 1 μM
broad panel of kinases [15] = molecular target: broad panel of kinases (Homo sapiens, UniProt P00519); settings: 1 μM
broad panel of kinases [16] = molecular target: broad panel of kinases (Homo sapiens, UniProt Q8NEV4); settings: MYO3A; 1 μM
broad panel of kinases [17] = molecular target: broad panel of kinases (Homo sapiens, UniProt Q16816); settings: PHKG1; 1 μM
broad panel of kinases [18] = molecular target: broad panel of kinases (Homo sapiens, UniProt Q12852); settings: DLK; 1 μM
broad panel of kinases [19] = molecular target: broad panel of kinases (Homo sapiens, UniProt Q06418); settings: TYRO3; 1 μM
broad panel of kinases [20] = molecular target: broad panel of kinases (Homo sapiens, UniProt Q99558); settings: NIK; 1 μM
broad panel of kinases [21] = molecular target: broad panel of kinases (Homo sapiens, UniProt Q9P289); settings: MST4; 1 μM
broad panel of kinases [22] = molecular target: broad panel of kinases (Homo sapiens, UniProt P49759); settings: CLK1; 1 μM
broad panel of kinases [23] = molecular target: broad panel of kinases (Homo sapiens, UniProt P57059); settings: SIK; 1 μM
broad panel of kinases [24] = molecular target: broad panel of kinases (Homo sapiens, UniProt O00141); settings: SGK; 1 μM
broad panel of kinases [25] = molecular target: broad panel of kinases (Homo sapiens, UniProt Q9P2K8, S808G); settings: GCN2(Kin.Dom.2, S808G); 1 μM
broad panel of kinases [26] = molecular target: broad panel of kinases (Homo sapiens, UniProt Q9NYY3); settings: PLK2; 1 μM
broad panel of kinases [27] = molecular target: broad panel of kinases (Homo sapiens, UniProt Q12851); settings: MAP4K2; 1 μM
broad panel of kinases [28] = molecular target: broad panel of kinases (Homo sapiens, UniProt Q96BR1); settings: SGK3; 1 μM
broad panel of kinases [29] = molecular target: broad panel of kinases (Homo sapiens, UniProt Q9HBH9); settings: MKNK2; 1 μM
broad panel of kinases [30] = molecular target: broad panel of kinases (Homo sapiens, UniProt Q9Y5S2); settings: MRCKB; 1 μM
broad panel of kinases [31] = molecular target: broad panel of kinases (Homo sapiens, UniProt Q15418); settings: 1 μM
broad panel of kinases [32] = molecular target: broad panel of kinases (Homo sapiens, UniProt Q13131); settings: AMPK-alpha1; 1 μM
broad panel of kinases [33] = molecular target: broad panel of kinases (Homo sapiens, UniProt Q02750); settings: MEK1; 1 μM
broad panel of kinases [34] = molecular target: broad panel of kinases (Homo sapiens, UniProt Q8IYT8); settings: ULK2; 1 μM
broad panel of kinases [35] = molecular target: broad panel of kinases (Homo sapiens, UniProt Q06187); settings: BTK; 1 μM
broad panel of kinases [36] = molecular target: broad panel of kinases (Homo sapiens, UniProt Q9NSY1); settings: BIKE; 1 μM
broad panel of kinases [37] = molecular target: broad panel of kinases (Homo sapiens, UniProt Q8NG66); settings: NEK11; 1 μM

Sequence of broad panel of kinases (Homo sapiens, UniProt Q06418) (Q06418 41-890 limits assumed): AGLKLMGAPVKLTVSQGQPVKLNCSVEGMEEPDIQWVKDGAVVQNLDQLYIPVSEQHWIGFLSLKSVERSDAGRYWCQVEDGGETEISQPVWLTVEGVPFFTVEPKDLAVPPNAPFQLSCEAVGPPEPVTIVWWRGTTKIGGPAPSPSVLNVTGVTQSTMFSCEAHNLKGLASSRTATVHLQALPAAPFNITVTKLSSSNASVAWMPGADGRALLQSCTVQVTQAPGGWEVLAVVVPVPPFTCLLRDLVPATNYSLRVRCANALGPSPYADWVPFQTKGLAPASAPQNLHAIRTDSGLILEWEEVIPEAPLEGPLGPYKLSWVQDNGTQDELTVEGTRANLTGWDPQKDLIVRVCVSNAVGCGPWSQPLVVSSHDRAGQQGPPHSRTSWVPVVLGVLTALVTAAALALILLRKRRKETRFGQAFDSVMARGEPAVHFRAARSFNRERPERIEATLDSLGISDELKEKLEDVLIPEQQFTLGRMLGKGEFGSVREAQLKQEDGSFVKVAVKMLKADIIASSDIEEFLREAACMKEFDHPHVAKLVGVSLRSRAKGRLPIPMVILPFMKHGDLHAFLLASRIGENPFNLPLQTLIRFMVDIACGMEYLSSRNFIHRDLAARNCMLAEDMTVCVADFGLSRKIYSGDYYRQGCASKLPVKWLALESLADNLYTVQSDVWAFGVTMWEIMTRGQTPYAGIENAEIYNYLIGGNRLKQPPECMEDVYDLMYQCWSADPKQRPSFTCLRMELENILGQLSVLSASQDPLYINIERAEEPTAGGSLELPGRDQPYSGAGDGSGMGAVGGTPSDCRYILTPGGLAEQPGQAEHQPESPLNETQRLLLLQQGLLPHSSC
Sequence of broad panel of kinases (Homo sapiens, UniProt P00533, L861Q) (P00533 25-1210 L861Q limits assumed): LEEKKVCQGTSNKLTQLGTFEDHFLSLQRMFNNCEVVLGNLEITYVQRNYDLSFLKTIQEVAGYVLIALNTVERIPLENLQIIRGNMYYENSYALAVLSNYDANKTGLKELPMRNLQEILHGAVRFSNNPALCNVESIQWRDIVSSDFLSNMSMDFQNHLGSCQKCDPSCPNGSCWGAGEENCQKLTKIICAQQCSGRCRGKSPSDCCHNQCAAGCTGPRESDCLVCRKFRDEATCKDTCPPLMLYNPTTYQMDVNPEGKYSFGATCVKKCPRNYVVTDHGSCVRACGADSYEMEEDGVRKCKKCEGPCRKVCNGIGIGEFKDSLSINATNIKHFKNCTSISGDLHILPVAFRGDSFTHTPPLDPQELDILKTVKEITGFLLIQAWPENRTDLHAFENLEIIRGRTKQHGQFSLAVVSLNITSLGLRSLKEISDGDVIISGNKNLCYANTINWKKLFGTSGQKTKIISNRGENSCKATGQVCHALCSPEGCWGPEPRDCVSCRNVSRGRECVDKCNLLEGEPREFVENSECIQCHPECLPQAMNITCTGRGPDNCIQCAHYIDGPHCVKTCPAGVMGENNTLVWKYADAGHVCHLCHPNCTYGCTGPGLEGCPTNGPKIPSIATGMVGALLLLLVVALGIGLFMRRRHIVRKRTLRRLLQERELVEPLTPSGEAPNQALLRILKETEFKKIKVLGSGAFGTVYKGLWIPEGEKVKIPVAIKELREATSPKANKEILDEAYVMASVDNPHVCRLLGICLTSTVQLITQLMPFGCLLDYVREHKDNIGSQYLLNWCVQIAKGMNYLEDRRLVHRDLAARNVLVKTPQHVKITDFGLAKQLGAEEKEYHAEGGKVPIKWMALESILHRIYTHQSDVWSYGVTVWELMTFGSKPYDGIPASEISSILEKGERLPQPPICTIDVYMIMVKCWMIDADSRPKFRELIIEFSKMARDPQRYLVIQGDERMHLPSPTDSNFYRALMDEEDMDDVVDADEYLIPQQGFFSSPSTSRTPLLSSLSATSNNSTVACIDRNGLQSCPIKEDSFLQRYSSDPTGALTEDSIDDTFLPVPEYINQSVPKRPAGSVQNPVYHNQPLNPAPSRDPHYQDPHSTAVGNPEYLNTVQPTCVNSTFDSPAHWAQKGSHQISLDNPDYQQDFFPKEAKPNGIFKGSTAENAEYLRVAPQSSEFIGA
Sequence of broad panel of kinases (Homo sapiens, UniProt P29322) (P29322 28-1005 limits assumed): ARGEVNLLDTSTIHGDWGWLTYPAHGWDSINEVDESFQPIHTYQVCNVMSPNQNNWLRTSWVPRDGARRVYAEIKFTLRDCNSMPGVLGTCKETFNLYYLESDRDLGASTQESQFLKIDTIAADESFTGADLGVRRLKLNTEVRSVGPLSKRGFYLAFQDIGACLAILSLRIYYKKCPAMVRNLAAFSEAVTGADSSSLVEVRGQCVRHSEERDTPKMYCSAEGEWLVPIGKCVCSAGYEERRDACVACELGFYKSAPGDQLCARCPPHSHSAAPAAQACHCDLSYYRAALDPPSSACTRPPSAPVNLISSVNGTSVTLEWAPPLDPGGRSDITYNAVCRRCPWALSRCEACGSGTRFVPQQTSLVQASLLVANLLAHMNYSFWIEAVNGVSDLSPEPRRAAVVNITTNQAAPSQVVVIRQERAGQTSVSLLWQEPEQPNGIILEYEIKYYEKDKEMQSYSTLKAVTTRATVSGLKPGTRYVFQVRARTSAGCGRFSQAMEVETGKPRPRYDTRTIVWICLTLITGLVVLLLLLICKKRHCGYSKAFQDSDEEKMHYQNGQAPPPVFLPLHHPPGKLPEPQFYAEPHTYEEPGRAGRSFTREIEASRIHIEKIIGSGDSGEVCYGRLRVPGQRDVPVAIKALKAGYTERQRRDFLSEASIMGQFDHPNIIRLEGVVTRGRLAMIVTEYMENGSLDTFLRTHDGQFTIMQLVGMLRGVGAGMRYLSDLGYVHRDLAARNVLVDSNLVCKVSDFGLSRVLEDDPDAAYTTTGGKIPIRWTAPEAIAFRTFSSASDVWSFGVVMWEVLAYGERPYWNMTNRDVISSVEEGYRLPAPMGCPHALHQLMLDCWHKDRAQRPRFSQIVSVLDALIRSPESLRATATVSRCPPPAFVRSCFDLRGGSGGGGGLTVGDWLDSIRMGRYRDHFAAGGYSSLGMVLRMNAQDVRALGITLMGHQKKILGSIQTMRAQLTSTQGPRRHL
Sequence of broad panel of kinases (Homo sapiens, UniProt Q06187) (Q06187 2-659 limits assumed): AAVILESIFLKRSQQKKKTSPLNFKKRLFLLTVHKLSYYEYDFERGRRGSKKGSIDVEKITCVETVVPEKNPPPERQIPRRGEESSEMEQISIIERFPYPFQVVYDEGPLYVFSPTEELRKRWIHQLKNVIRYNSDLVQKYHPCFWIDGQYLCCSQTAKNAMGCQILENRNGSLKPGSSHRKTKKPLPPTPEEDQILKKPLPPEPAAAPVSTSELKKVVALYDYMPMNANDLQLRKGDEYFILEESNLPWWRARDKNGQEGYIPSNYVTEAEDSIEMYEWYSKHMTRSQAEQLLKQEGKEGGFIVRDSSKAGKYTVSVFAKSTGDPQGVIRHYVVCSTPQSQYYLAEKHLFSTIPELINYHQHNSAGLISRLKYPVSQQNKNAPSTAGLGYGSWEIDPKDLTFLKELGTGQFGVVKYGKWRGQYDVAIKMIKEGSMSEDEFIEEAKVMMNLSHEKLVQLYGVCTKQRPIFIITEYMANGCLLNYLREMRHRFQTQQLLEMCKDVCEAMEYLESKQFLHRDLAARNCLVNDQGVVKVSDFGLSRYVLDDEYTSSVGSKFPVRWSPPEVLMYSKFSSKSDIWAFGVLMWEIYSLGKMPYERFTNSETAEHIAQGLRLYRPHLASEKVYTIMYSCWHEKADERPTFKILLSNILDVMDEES
Sequence of broad panel of kinases (Homo sapiens, UniProt Q9P289) (Q9P289 2-416 limits assumed): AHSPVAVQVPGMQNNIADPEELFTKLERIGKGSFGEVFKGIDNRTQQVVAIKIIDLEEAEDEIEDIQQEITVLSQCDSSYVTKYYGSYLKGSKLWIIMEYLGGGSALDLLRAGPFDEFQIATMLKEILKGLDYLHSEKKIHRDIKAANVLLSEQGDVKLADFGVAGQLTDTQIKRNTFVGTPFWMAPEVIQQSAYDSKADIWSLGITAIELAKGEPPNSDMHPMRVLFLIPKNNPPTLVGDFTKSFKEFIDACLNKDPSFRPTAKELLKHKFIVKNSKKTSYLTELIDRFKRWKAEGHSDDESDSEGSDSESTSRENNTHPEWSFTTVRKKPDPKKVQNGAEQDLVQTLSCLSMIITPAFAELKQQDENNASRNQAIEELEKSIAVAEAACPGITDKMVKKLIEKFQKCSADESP
Sequence of broad panel of kinases (Homo sapiens, UniProt P06241) (P06241 2-537 limits assumed): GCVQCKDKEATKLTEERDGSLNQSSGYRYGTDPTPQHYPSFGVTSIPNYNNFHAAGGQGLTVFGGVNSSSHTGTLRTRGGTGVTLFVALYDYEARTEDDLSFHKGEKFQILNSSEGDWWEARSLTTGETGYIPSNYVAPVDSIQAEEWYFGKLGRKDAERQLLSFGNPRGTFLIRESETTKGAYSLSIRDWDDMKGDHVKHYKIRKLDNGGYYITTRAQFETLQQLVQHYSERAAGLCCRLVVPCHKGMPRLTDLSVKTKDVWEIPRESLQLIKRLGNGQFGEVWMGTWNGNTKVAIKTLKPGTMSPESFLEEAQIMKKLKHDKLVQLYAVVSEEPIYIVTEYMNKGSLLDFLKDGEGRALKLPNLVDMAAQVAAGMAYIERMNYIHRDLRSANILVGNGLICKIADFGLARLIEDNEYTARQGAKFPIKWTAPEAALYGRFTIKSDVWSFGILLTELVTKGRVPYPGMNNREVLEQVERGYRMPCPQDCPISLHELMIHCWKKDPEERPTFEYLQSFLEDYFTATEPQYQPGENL

SMILES: C=CC(=O)N1CC[C@H](Nc2nccc(Nc3ncc(C(=O)Nc4c(C)cccc4C)s3)n2)C1 [Example I-3]
- percent of control binding remaining (lower = stronger binding) (broad panel of kinases [1]): 98%
- percent of control binding remaining (lower = stronger binding) (broad panel of kinases [2]): 100%
- percent of control binding remaining (lower = stronger binding) (broad panel of kinases [3]): 0.1%
- percent of control binding remaining (lower = stronger binding) (broad panel of kinases [4]): 100%
- percent of control binding remaining (lower = stronger binding) (broad panel of kinases [5]): 0%
- percent of control binding remaining (lower = stronger binding) (broad panel of kinases [6]): 100%
- percent of control binding remaining (lower = stronger binding) (broad panel of kinases [7]): 78%
- percent of control binding remaining (lower = stronger binding) (broad panel of kinases [8]): 0.5%
- percent of control binding remaining (lower = stronger binding) (broad panel of kinases [9]): 0.8%
- percent of control binding remaining (lower = stronger binding) (broad panel of kinases [10]): 95%
- percent of control binding remaining (lower = stronger binding) (broad panel of kinases [11]): 81%
- percent of control binding remaining (lower = stronger binding) (broad panel of kinases [12]): 100%
- percent of control binding remaining (lower = stronger binding) (broad panel of kinases [13]): 81%
- percent of control binding remaining (lower = stronger binding) (broad panel of kinases [14]): 0.45%
- % change compared to control (broad panel of kinases [15]; ABL1-nonphosphorylated): 0.1%
- % change compared to control (broad panel of kinases [15]; ABL1-phosphorylated): 0%
- percent of control binding remaining (lower = stronger binding) (broad panel of kinases [16]): 96%
- percent of control binding remaining (lower = stronger binding) (broad panel of kinases [17]): 99%
- percent of control binding remaining (lower = stronger binding) (broad panel of kinases [18]): 100%
- percent of control binding remaining (lower = stronger binding) (broad panel of kinases [19]): 41%
- percent of control binding remaining (lower = stronger binding) (broad panel of kinases [20]): 84%
- percent of control binding remaining (lower = stronger binding) (broad panel of kinases [21]): 100%
- percent of control binding remaining (lower = stronger binding) (broad panel of kinases [22]): 100%
- percent of control binding remaining (lower = stronger binding) (broad panel of kinases [23]): 0.4%
- percent of control binding remaining (lower = stronger binding) (broad panel of kinases [24]): 61%
- percent of control binding remaining (lower = stronger binding) (broad panel of kinases [25]): 100%
- percent of control binding remaining (lower = stronger binding) (broad panel of kinases [26]): 76%
- percent of control binding remaining (lower = stronger binding) (broad panel of kinases [27]): 91%
- percent of control binding remaining (lower = stronger binding) (broad panel of kinases [28]): 100%
- percent of control binding remaining (lower = stronger binding) (broad panel of kinases [29]): 98%
- percent of control binding remaining (lower = stronger binding) (broad panel of kinases [30]): 100%
- percent of control binding remaining (lower = stronger binding) (broad panel of kinases [31]; RSK1(Kin.Dom.1-N-terminal)): 91%
- percent of control binding remaining (lower = stronger binding) (broad panel of kinases [31]; RSK1(Kin.Dom.2-C-terminal)): 100%
- percent of control binding remaining (lower = stronger binding) (broad panel of kinases [32]): 98%
- percent of control binding remaining (lower = stronger binding) (broad panel of kinases [33]): 100%
- percent of control binding remaining (lower = stronger binding) (broad panel of kinases [34]): 91%
- percent of control binding remaining (lower = stronger binding) (broad panel of kinases [35]): 0.05%
- percent of control binding remaining (lower = stronger binding) (broad panel of kinases [36]): 90%
- percent of control binding remaining (lower = stronger binding) (broad panel of kinases [37]): 49%

SMILES: C=CC(=O)N1CC[C@H](Nc2nc(CN3CCOCC3)cc(Nc3ncc(C(=O)Nc4c(C)cccc4C)s3)n2)C1 [Example I-2]
- percent of control binding remaining (lower = stronger binding) (broad panel of kinases [1]): 94%
- percent of control binding remaining (lower = stronger binding) (broad panel of kinases [2]): 100%
- percent of control binding remaining (lower = stronger binding) (broad panel of kinases [3]): 0%
- percent of control binding remaining (lower = stronger binding) (broad panel of kinases [4]): 100%
- percent of control binding remaining (lower = stronger binding) (broad panel of kinases [5]): 0%
- percent of control binding remaining (lower = stronger binding) (broad panel of kinases [6]): 100%
- percent of control binding remaining (lower = stronger binding) (broad panel of kinases [7]): 88%
- percent of control binding remaining (lower = stronger binding) (broad panel of kinases [8]): 0.3%
- percent of control binding remaining (lower = stronger binding) (broad panel of kinases [9]): 1.3%
- percent of control binding remaining (lower = stronger binding) (broad panel of kinases [10]): 96%
- percent of control binding remaining (lower = stronger binding) (broad panel of kinases [11]): 98%
- percent of control binding remaining (lower = stronger binding) (broad panel of kinases [12]): 99%
- percent of control binding remaining (lower = stronger binding) (broad panel of kinases [13]): 100%
- percent of control binding remaining (lower = stronger binding) (broad panel of kinases [14]): 0.75%
- percent of control binding remaining (lower = stronger binding) (broad panel of kinases [15]; ABL1-nonphosphorylated): 0.05%
- percent of control binding remaining (lower = stronger binding) (broad panel of kinases [15]; ABL1-phosphorylated): 0%
- percent of control binding remaining (lower = stronger binding) (broad panel of kinases [16]): 93%
- percent of control binding remaining (lower = stronger binding) (broad panel of kinases [17]): 100%
- percent of control binding remaining (lower = stronger binding) (broad panel of kinases [18]): 98%
- percent of control binding remaining (lower = stronger binding) (broad panel of kinases [19]): 41%
- percent of control binding remaining (lower = stronger binding) (broad panel of kinases [20]): 91%
- percent of control binding remaining (lower = stronger binding) (broad panel of kinases [21]): 100%
- percent of control binding remaining (lower = stronger binding) (broad panel of kinases [22]): 92%
- percent of control binding remaining (lower = stronger binding) (broad panel of kinases [23]): 0.8%
- percent of control binding remaining (lower = stronger binding) (broad panel of kinases [24]): 56%
- percent of control binding remaining (lower = stronger binding) (broad panel of kinases [25]): 85%
- percent of control binding remaining (lower = stronger binding) (broad panel of kinases [26]): 92%
- percent of control binding remaining (lower = stronger binding) (broad panel of kinases [27]): 87%
- percent of control binding remaining (lower = stronger binding) (broad panel of kinases [28]): 100%
- percent of control binding remaining (lower = stronger binding) (broad panel of kinases [29]): 100%
- percent of control binding remaining (lower = stronger binding) (broad panel of kinases [30]): 89%
- percent of control binding remaining (lower = stronger binding) (broad panel of kinases [31]; RSK1(Kin.Dom.1-N-terminal)): 73%
- percent of control binding remaining (lower = stronger binding) (broad panel of kinases [31]; RSK1(Kin.Dom.2-C-terminal)): 100%
- percent of control binding remaining (lower = stronger binding) (broad panel of kinases [32]): 100%
- percent of control binding remaining (lower = stronger binding) (broad panel of kinases [33]): 67%
- percent of control binding remaining (lower = stronger binding) (broad panel of kinases [34]): 89%
- percent of control binding remaining (lower = stronger binding) (broad panel of kinases [35]): 0%
- percent of control binding remaining (lower = stronger binding) (broad panel of kinases [36]): 100%
- percent of control binding remaining (lower = stronger binding) (broad panel of kinases [37]): 83%
